Experimental data: ChEMBL document CHEMBL5247610, “Discovery of 5-((4-(pyridin-3-yl)pyrimidin-2-yl)amino)-1H-indole-2-carboxamide derivatives as novel anti-cancer agents targeting Nur77” (Eur J Med Chem, 2022)
Activity calls are given as the source filed them. No cut-off for these calls is given here.

Columns and labels:
HepG2 [1] = test: Antitumor activity against human HepG2 cells xenografted in BALB/c nude mouse assessed as inhibition of tumor volume at 50 mg/kg, ip administered once every day for 14 days; type: functional, organism-based; details: time 14.0 day
HepG2 [2] = test: Induction of apoptosis in human HepG2 cells assessed as early apoptotic cells at 10 uM incubated for 12 hrs by AnnexinV-FITC/PI staining based flow cytometry (reference value: 0.83%); type: functional
HepG2 [3] = test: Antitumor activity against human HepG2 cells xenografted in BALB/c nude mouse assessed as increase in cleaved caspase 3 expression in tumor tissues at 50 mg/kg, ip administered once every day for 14 days by immunohistochemistry analysis; type: functional, organism-based; details: time 14.0 day
[4] = Toxicity in BALB/c nude mouse xenografted with human HepG2 cells assessed as effect on lung damage at 50 mg/kg ip administered once every day for 14 days by H and E staining based analysis; type: organism-based; details: in vivo, 336 h, time 14 day
[5] = molecular target: T1, Retinoic acid receptor RXR-alpha (Homo sapiens) (UniProt P19793); test: Binding affinity to pBind-RXRalpha-LBD (unknown origin) transfected in HEK293T cells co-transfected with pG5-Luc at 5 uM incubated for 12 hrs by luciferase reporter gene assay; type: cell-based
T1 sequence (whole entry): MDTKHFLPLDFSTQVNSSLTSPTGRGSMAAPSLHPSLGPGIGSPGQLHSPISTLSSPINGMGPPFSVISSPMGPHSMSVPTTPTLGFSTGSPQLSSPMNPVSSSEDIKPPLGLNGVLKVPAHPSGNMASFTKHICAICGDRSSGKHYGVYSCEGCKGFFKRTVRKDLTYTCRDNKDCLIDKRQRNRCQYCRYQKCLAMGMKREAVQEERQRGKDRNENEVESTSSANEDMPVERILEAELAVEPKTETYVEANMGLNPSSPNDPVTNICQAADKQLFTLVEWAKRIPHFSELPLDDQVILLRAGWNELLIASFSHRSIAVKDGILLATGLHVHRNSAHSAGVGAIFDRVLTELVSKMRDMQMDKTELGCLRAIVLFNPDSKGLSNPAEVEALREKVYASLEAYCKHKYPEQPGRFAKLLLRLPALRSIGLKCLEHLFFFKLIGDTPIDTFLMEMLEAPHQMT

[6] = molecular target: T2, Nuclear receptor subfamily 4immunitygroup A member 1 (Homo sapiens, UniProt P22736); test: Binding affinity to Nur77 ligand binding domain (unknown origin) by surface plasmon resonance analysis
SMMC-7721 = test: Antiproliferative activity against human SMMC-7721 cells assessed as reduction in cell viability incubated for 48 hrs by MTT assay; type: functional, cell-based; details: SMMC-7721, 48 h
[7] = Selectivity index, ratio of IC50 for human L02 cells to IC50 for human HepG2 cells by MTT assay; type: toxicity; details: L02 cells versus HepG2 cells, read-out: Ratio IC50
HepG2 [8] = test: Induction of apoptosis in human HepG2 cells assessed as mitochondrial membrane potential loss by measuring proportion of cells with depolarized MMP at 10 uM incubated for 12 hrs by JC-1 staining based flow cytometry (reference value: 5.81%); type: functional
MDA-MB-231 = test: Antiproliferative activity against human MDA-MB-231 cells assessed as reduction in cell viability incubated for 48 hrs by MTT assay; type: functional, cell-based; details: MDA-MB-231, 48 h
HeLa = test: Antiproliferative activity against human HeLa cells assessed as cell viability at 10 uM incubated for 48 hrs by MTT assay; type: functional; details: read-out: Activity
[9] = Toxicity in BALB/c nude mouse xenografted with human HepG2 cells assessed as effect on spleen damage at 50 mg/kg ip administered once every day for 14 days by H and E staining based analysis; type: organism-based; details: in vivo, 336 h, time 14 day
[10] = Selectivity index, ratio of IC50 for human L02 cells to IC50 for human MDA-MB-231 cells by MTT assay; type: toxicity; details: L02 cells versus MDA-MB-231 cells, read-out: Ratio IC50
Huh-7 = test: Antiproliferative activity against human Huh-7 cells assessed as reduction in cell viability incubated for 48 hrs by MTT assay; type: functional, cell-based; details: Huh-7, 48 h
[11] = molecular target: T2, Nuclear receptor subfamily 4immunitygroup A member 1; test: Binding affinity to pBind-Nur77-LBD (unknown origin) transfected in HEK293T cells co-transfected with pG5-Luc assessed as inhibition of Nur77 transcriptional activity by measuring inhibition of Nur77-driven luciferase activity at 5 uM incubated for 12 hrs by luciferase reporter gene assay; type: cell-based; details: filed as modulator
HepG2 [12] = test: Induction of apoptosis in human HepG2 cells transfected with Nur77 siRNA assessed as late necrotic cells at 10 uM incubated for 12 hrs by AnnexinV-FITC/PI staining based flow cytometry (reference value: 0.3%); type: functional
HepG2 [13] = test: Induction of apoptosis in human HepG2 cells assessed as necrotic cells at 10 uM incubated for 12 hrs by AnnexinV-FITC/PI staining based flow cytometry (reference value: 0.92%); type: functional
HepG2 [14] = test: Induction of apoptosis in human HepG2 cells assessed as viable cells at 10 uM incubated for 12 hrs by AnnexinV-FITC/PI staining based flow cytometry (reference value: 96.32%); type: functional; details: read-out: Activity
[15] = Toxicity in BALB/c nude mouse xenografted with human HepG2 cells assessed as effect on heart damage at 50 mg/kg ip administered once every day for 14 days by H and E staining based analysis; type: organism-based; details: in vivo, 336 h, time 14 day
[16] = Selectivity index, ratio of IC50 for human L02 cells to IC50 for human A549 cells by MTT assay; type: toxicity; details: L02 cells versus A549 cells, read-out: Ratio IC50
A549 = test: Antiproliferative activity against human A549 cells assessed as reduction in cell viability incubated for 48 hrs by MTT assay; type: functional, cell-based; details: A549, 48 h
HepG2 [17] = test: Antiproliferative activity against human HepG2 cells assessed as cell viability at 10 uM incubated for 48 hrs by MTT assay; type: functional; details: read-out: Activity
[18] = Cytotoxicity against human L02 cells assessed as cell viability at 10 uM incubated for 48 hrs by MTT assay; type: toxicity, cell-based; details: read-out: Activity
HepG2 [19] = test: Induction of apoptosis in human HepG2 cells transfected with Nur77 siRNA assessed as induction of PARP cleavage at 10 to 15 uM incubated for 12 hrs by western blot analysis; type: functional, cell-based; details: dose 10-15 µM
HepG2 [20] = test: Antiproliferative activity against human HepG2 cells assessed as reduction in cell viability incubated for 48 hrs by MTT assay; type: functional, cell-based; details: HepG2, 48 h
[21] = Selectivity index, ratio of IC50 for human L02 cells to IC50 for human Huh-7 cells by MTT assay; type: toxicity; details: L02 cells versus Huh-7 cells, read-out: Ratio IC50
HepG2 [22] = test: Antitumor activity against human HepG2 cells xenografted in BALB/c nude mouse assessed as induction of nuclear shrinkage in tumor tissues at 50 mg/kg, ip administered once every day for 14 days by H and E staining based analysis; type: functional, organism-based; details: time 14.0 day
[23] = Toxicity in BALB/c nude mouse xenografted with human HepG2 cells assessed as effect on kidney damage at 50 mg/kg ip administered once every day for 14 days by H and E staining based analysis; type: organism-based; details: in vivo, 336 h, time 14 day
[24] = molecular target: T2, Nuclear receptor subfamily 4immunitygroup A member 1; test: Binding affinity to Nur77 ligand binding domain (unknown origin) by fluorescence quenching assay
[25] = Cytotoxicity against human L02 cells assessed as reduction in cell viability incubated for 48 hrs by MTT assay; type: toxicity, cell-based

T2 sequence (P22736 whole entry, the tested form may be a part): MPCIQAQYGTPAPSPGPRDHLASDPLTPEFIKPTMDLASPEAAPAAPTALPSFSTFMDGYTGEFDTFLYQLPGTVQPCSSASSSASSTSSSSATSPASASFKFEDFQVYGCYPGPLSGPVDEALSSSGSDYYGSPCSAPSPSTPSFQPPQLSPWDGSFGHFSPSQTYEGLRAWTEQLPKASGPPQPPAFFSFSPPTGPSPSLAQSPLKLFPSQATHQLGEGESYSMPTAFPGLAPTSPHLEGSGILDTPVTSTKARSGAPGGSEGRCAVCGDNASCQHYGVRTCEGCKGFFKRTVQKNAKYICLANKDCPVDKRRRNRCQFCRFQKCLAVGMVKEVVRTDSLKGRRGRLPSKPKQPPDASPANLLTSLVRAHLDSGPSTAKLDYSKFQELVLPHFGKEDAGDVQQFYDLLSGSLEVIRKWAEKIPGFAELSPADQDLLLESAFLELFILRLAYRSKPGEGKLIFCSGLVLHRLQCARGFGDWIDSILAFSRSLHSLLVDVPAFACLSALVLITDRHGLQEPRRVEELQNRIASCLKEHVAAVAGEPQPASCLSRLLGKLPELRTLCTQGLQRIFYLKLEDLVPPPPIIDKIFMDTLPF

SMILES: CN(C)CCCNC(=O)c1cc2cc(Nc3nccc(-c4cccnc4)n3)ccc2[nH]1
- Activity (HepG2 [1]): Active
- Activity (HepG2 [2]): 16.5%
- Activity (HepG2 [3]): Active
- Activity [4]: Non-Toxic
- Activity [5]: inactive
- Kd [6]: 0.354 µM
- Activity ([6]; filed as modulator): Dose-Dependent Effect
- IC50 (SMMC-7721): 5.91 µM
- selectivity ratio [7]: 1.24
- Activity (HepG2 [8]): 21.34%
- IC50 (MDA-MB-231): 3.24 µM
- viability at 10 µM (HeLa): 19.4%
- Activity [9]: Non-Toxic
- selectivity ratio [10]: 3.47
- IC50 (Huh-7): 3.58 µM
- Activity [11]: Active
- Activity (HepG2 [12]): 0.75%
- Activity (HepG2 [13]): 2.83%
- viability at 10 µM (HepG2 [14]): 72.7%
- Activity [15]: Non-Toxic
- selectivity ratio [16]: 1.7
- IC50 (A549): 6.63 µM
- viability at 10 µM (HepG2 [17]): 43.7%
- viability at 48 h, 10 µM [18]: 53.4%
- Activity (HepG2 [19]): inactive
- IC50 (HepG2 [20]): 9.04 µM
- selectivity ratio [21]: 3.14
- Activity (HepG2 [22]): Active
- Activity [23]: Non-Toxic
- Kd [24]: 0.121 µM
- IC50 at 48 h [25]: 11.2 µM
